For 57 molecules, viability results are on record in publication PMC12040169 (PLOS Biology, 2025).

By viability is commonly meant a read-out of living cells in per cent, often relative to untreated cells.

This series in a line: in vitro. As to conditions: human, hela cells, % viability.

Each structure is given as a SMILES string.

Take `O=[N+]([O-])c1ccc(CN2CCN(c3nccnc3Oc3ccc(F)cc3)CC2)cc1` [CBK083015T]: the viability at 28.5 h, 10 µM came to 92.2%. Turning to `Cc1ccc(S(=O)(=O)NCCc2ccccn2)s1` [CBK269223], the viability at 28.5 h, 10 µM is 102%.

With `CC(Cc1c[nH]c2ccccc12)NC(=O)CSS(=O)(=O)O` (stereo not drawn) [CBK260942N], the viability at 28.5 h, 10 µM came to 93.3%. With `Cc1cc(NS(=O)(=O)c2ccc(F)cc2)n(C)n1` [CBK051021], the viability at 28.5 h, 10 µM came to 108%. With `CN(C)C(=O)CSc1nnc(-c2cccc3ccccc23)n1-c1ccccc1` [CBK266044], the viability at 28.5 h, 10 µM stood at 92%. In the case of `O=C(O)CCCC(=O)Nc1ccc([N+](=O)[O-])cc1O` [CBK267384], the viability at 28.5 h, 10 µM was 102%. Consider `NC(=O)Nn1c(CCC(=O)O)ccc1-c1cccs1` [CBK266019], for which the viability at 28.5 h, 10 µM stood at 93.1%. Take `CN(C)CC(C)(C)CNC(=O)c1cc(-c2ccc(C(=O)N3CCOCC3)cc2)cnc1N` [CBK158574]: the viability at 28.5 h, 10 µM came out at 80.2%. As for `CS(=O)(=O)N1CC2(CCN(CC3CCCCC3)CC2)c2ccccc21` [CBK084018], the viability at 28.5 h, 10 µM came out at 96.8%. `O=C1CCC(=O)N1CCOc1nccnc1N1CCN(Cc2ccc(Cl)cc2)CC1` [CBK084290]: the viability at 28.5 h, 10 µM amounted to 96.1%.

`O=C(O)c1cnc2ccc(F)cc2c1N1CCOCC1` [CBK287851]: the viability at 28.5 h, 10 µM stood at 82.5%.

For `Cc1c(NC(=O)COc2ccc([N+](=O)[O-])cc2)cccc1-c1nc2ncccc2o1` [CBK263912], the viability at 28.5 h, 10 µM was 105%. Turning to `CCCC(C(=O)O)N1C(=O)C(=Cc2ccc(-c3ccc(C(=O)OCC)cc3)o2)SC1=S` (stereo not drawn) [CBK296983], the viability at 28.5 h, 10 µM came to 80.6%. Take `CCOc1ccc(-c2csc(NC(=O)c3cccnc3)n2)cc1` [CBK094747]: the viability at 28.5 h, 10 µM was 89.2%.

Regarding `Cn1ncc2c(NCCN3CCOC3=O)nc(C(C)(C)C)nc21` [CBK307511], the viability at 28.5 h, 10 µM was 75.3%. On to `CCOC(=O)N1CCC(NS(=O)(=O)Cc2ccccc2[N+](=O)[O-])CC1` [CBK045467], for which the viability at 28.5 h, 10 µM amounted to 97.3%. The same measure, in the same setting: to `N#Cc1c(Nc2cccc(C(F)(F)F)c2)sc(C(=O)c2ccc3c(c2)OCO3)c1N` [CBK074399] belongs 89.2%; to `Cc1cc(Br)ccc1-n1sc2ccccc2c1=O` [CBK116239], 87%; to `O=C(O)/C=C/C(=O)Nc1cccc(C(=O)O)c1` [CBK260988], 97.7%. Regarding `O=C(C1CCN(S(=O)(=O)c2ccccc2)CC1)N1CCN(Cc2ccc3c(c2)OCO3)CC1` [CBK265713], the viability at 28.5 h, 10 µM stood at 104%. Regarding `CCOc1cc(C=C2C(=O)NC(=O)NC2=O)ccc1OS(=O)(=O)c1ccc([N+](=O)[O-])cc1` [CBK263614], the viability at 28.5 h, 10 µM (bulk resorufin, single well) came to 82.9%.

With `O=C(CCc1ccc(F)cc1)N1CCCC(c2cccc(Cc3ccccc3F)n2)C1` (stereo not drawn) [CBK286512], the viability at 28.5 h, 10 µM came to 91.2%.

For the molecule `O=C(O)C(Cc1ccccc1)Nc1ncnc2c1oc1ccccc12` (stereo not drawn) [CBK266719], the viability at 28.5 h, 10 µM turned out to be 104%. `Cc1ccc(Cl)cc1NC(=O)OCCN(C)C` [CBK016906]: the viability at 28.5 h, 10 µM amounted to 98.3%. For `CC(NC(=O)C(C)(C)C)c1nc(-c2cccnc2)n[nH]1` (stereo not drawn) [CBK104007], the viability at 28.5 h, 10 µM was found to be 94.2%.

`OCCOc1cccc(OCCOc2nccnc2N2CCNCC2)c1` [CBK014339G]: the viability at 28.5 h, 10 µM worked out at 112%.

As to `COc1cccc(CN2CCN(C(=O)N3CCCC3)[C@@H](C)C2)c1` [CBK285491], the viability at 28.5 h, 10 µM is 107%.

As to `COc1ccc(O)c(CN(C)CCN(C)C)c1` [CBK261854], the viability at 28.5 h, 10 µM stood at 89.4%. In the case of `Cc1nc(S(=O)(=O)N2CCC3(CCCCC3)C2)cn1C` [CBK306306], the viability at 28.5 h, 10 µM was 100%. Turning to `CCCN1CCC2CN(CCCC(=O)c3ccc(F)cc3)CCN2C1=O` (stereo not drawn) [CBK024882C], the viability at 28.5 h, 10 µM was determined as 101%. For `CC(=O)c1cc2c(N)c(/C(N)=N/C#N)sc2nc1C` [CBK021202], the viability at 28.5 h, 10 µM came out at 70.7%.

With `Cc1cc(C)nc(NC2=NC(=O)CC(C(=O)O)N2c2ccc(Cl)cc2Cl)n1` (stereo not drawn) [CBK286968], the viability at 28.5 h, 10 µM amounted to 94.5%. Consider `O=C(Cn1c(C2CCCNC2)cc2cccnc21)N1CCCC1` (stereo not drawn) [CBK285060], for which the viability at 28.5 h, 10 µM was determined as 94.4%. Regarding `S=C(Nc1ccccc1)N(CCN1CCOCC1)Cc1cccc(Cl)c1` [CBK267975], the viability at 28.5 h, 10 µM is 103%. With `Nc1nc2c(nc(OCc3ccccc3)n2C2OC(CO)C(O)C2O)c(=O)[nH]1` (stereo not drawn) [CBK201247], the viability at 28.5 h, 10 µM is 80.6%. For `CCCCc1c(C)nc2ccc(Br)cc2c1SCCC(=O)O` [CBK126915], the viability at 28.5 h, 10 µM came to 93.4%.

Turning to `CCNc1cc2ccccc2c(-c2cc(C(C)C)ccc2OC)n1` [CBK073777], the viability at 28.5 h, 10 µM worked out at 110%.

For `COc1ccc(-c2ccc(N3CCN(CCN(C)C)CC3)nc2)cc1OC` [CBK036818], the viability at 28.5 h, 10 µM turned out to be 98.2%. For `CC(C)c1nc(NCc2nnc3n2CCC3)nc(N(C)C)n1` [CBK305117], the viability at 28.5 h, 10 µM turned out to be 99.5%. Same read-out and setting: the value for `O=C(NCCN1CCOCC1)N1CCN(c2ccccc2)CC1` [CBK155180] was 83.8%; that for `CC(NC(=O)Nc1ccc(C(=O)NC(C)(C)C)cc1)c1cccc(Cl)c1` (stereo not drawn) [CBK298265] was 87.8%. In the case of `COCCCOc1nc2ccccc2nc1C(F)(F)F` [CBK115803], the viability at 28.5 h, 10 µM is 101%. Consider `Cc1nnc(SCc2nnnn2-c2ccccc2)nc1O` [CBK266302], for which the viability at 28.5 h, 10 µM turned out to be 101%. With `Oc1cccc(OCCOc2nc3cc(Cl)c(Cl)cc3nc2N2CCCC2)c1` [CBK115778], the viability at 28.5 h, 10 µM is 100%. Same read-out and setting: to `FC(F)(F)Oc1cccc(-c2cncc(NCc3cccs3)n2)c1` [CBK065909] belongs 97.5%; to `O=C(O)[C@H]1CN(C(=O)c2ccco2)C[C@@H]1c1ccccc1F` [CBK283820], 80.6%; to `Cc1ccc(S(=O)(=O)N2CCOCC2)cc1C(=O)NCCc1ccccc1` [CBK269658], 99%.

As for `CCN(CC)C(=O)CNS(=O)(=O)Cc1ccccc1[N+](=O)[O-]` [CBK034504], the viability at 28.5 h, 10 µM was 94.3%. Take `CS(=O)(=O)Nc1cccc(-c2cnc3[nH]c(=O)n(Cc4ccc(S(C)(=O)=O)cc4)c3n2)c1` [CBK065061]: the viability at 28.5 h, 10 µM was determined as 98.6%. `O=C(Nc1ccc(C(F)(F)F)cc1)N1CCC(n2c(=O)[nH]c3ccccc32)CC1` [CBK149847]: the viability at 28.5 h, 10 µM stood at 83.1%. On the same count and under the same terms, the value for `CCOC(=O)c1cc(CC)sc1NC(=O)c1cc2ccccc2o1` [CBK267596] was 88.3%; that for `CCOc1ccc(-c2cc(C(=O)Nc3cccc(C(=O)O)c3)no2)cc1` [CBK299776] was 93.9%; that for `O=C(CC1C(=O)NCCN1C(=O)Nc1ccc(OCc2ccccc2)cc1)Nc1ccc(F)cc1` (stereo not drawn) [CBK086203] was 113%. As for `Nc1nc2sc3c(c2cc1C(=O)N1CCOCC1)CCCC3` [CBK022399], the viability at 28.5 h, 10 µM came out at 96.1%. `O=C(NCc1ccccc1)c1ccc(NCc2ccccc2)c([N+](=O)[O-])c1` [CBK074547]: the viability at 28.5 h, 10 µM was found to be 92.9%.

Regarding `O=C(/C=C/c1ccco1)NC(=S)Nc1ccc(O)c(-c2nc3ccccc3s2)c1` [CBK264344], the viability at 28.5 h, 10 µM turned out to be 85.7%. Turning to `O=S(=O)(c1ccc(-c2ccccc2)cc1)N1CCCN(CCCO)CC1` [CBK063043], the viability at 28.5 h, 10 µM is 102%.
